No end group written: not given here.
Tests used:
[1] = molecular target: T1, human orexin-2 (hOX2) receptors (Homo sapiens, UniProt O43614); assay: Intracellular Ca2+ mobilization assay (FLIPR), orexin-A as agonist; format: cell-based; settings: CHO(dHFr-) cells stably expressing hOX2; antagonist applied 25 min before EC80 of orexin-A; Kb=IC50/(1+[A]/EC50); read-out: Kb (μM) OX2R (human)
T1 construct: expressed in transfected cells
T1 sequence (O43614 1-444): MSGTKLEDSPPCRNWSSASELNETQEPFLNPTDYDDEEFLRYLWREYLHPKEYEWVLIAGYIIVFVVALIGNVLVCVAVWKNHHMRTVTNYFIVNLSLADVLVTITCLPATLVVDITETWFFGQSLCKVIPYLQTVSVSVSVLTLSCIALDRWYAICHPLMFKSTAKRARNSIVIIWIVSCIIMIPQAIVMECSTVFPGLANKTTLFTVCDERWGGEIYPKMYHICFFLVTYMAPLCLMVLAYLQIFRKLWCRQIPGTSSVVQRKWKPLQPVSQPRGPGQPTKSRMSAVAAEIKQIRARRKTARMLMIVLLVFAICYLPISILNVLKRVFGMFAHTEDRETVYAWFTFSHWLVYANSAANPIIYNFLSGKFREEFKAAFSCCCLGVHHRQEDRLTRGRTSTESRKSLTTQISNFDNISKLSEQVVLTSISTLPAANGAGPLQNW
Method: Intracellular Ca^2+ Mobilization Assay
The Chinese Hamster Ovary (dHFr-) mutant cell line stably expressing human orexin-1 (hOX1) or human orexin-2 (hOX2) receptors were maintained in Dulbecco's Modified Eagle Medium (1X) with GlutaMax™ 1, 4500 mg/L D-Glucose and Sodium Pyruvate (Catalog No. 31966-021, Invitrogen, Carlsbad, Calif.), 5% dialyzed fetal calf serum (Catalog No. 26400-044), 100 μg/ml penicillin and 100 μg/ml streptomycin. The cells were seeded at 5×10^4 cells/well in the poly-D-lysine treated, 96-well, black/clear-bottomed plates (Catalog No. BD356640, BD Biosciences, Palo Alto, Calif.). 24 h later, the cells were loaded for 1 hr at 37° C. with 4 μM Flou-4 acetoxymethyl ester (Catalog No. F-14202, Molecular Probes, Eugene, Oreg.) in FLIPR buffer (1×HBSS, 20 mM HEPES, 2.5 mM Probenecid). Hanks' Balanced Salt Solution (HBSS) (10X) (catalog No. 14065-049) and HEPES (1M) (catalog No. 15630-056) were purchased from Invitrogen, Carlsbad, Calif. Probenecid (250 mM) (catalog No. P8761) was from Sigma, Buchs, Switzerland. The cells were washed five times with FLIPR buffer to remove excess dye and intracellular calcium mobilization, [Ca^2+] were measured using a Fluorometric Imaging Plate Reader (FLIPR-96, Molecular Devices, Menlo Park, Calif.) as described previously (Malherbe et al., Mol. Pharmacol., 64, 823-832, 2003). Orexin A (catalog No.1455, Toris Cookson Ltd, Bristol, UK) was used as agonist. Orexin A ([…] stock solution in DMSO) was diluted in FLIPR buffer +0.1% BSA. The EC50 and EC80 values of orexin-A were measured daily from standard agonist concentration-response curves in CHO(dHFr-)-OX1R and —OX2R cell lines. All compounds were dissolved in 100% DMSO. Inhibition curves were determined by addition of 11 concentrations (0.0001-10 μM) of inhibitory compounds and using EC80 value of orexin-A as agonist (a concentration which gave 80% of max agonist response, determined daily). The antagonists were applied 25 min (incubation at 37° C.) before the application of the agonist. Responses were measured as peak increase in fluorescence minus basal, normalized to the maximal stimulatory effect induced by EC80 value of orexin-A or orexin-B. Inhibition curves were fitted according to the Hill equation: y=100/(1+(x/1C50)^nH), where nH=slope factor using Excel-fit 4 software (Microsoft). Kb values were calculated according to the following equation Kb=IC50/(1+[A]/EC50) where A is the concentration of agonist added which is very close to agonist EC80 value, and IC50 and EC50 values were derived from the antagonist inhibition and orexin-A or B agonist curves, respectively.

rat = settings: icv administration; cited from earlier work

Kb [1] [µM]	Compound	reduction of total REM sleep (rat) [%]
0.0077	COc1ccc(S(=O)(=O)N(CC(=O)N2CCCC2c2ccccc2)c2cccc(C(F)(F)F)c2)cc1 (stereo not drawn) [Example 47, 4-Methoxy-N-[2-oxo-2-(2-phenyl-pyrrolidin-1-yl)-ethyl]-N-(3-trifluoromethyl-phenyl)-benzenesulfonamide]	
0.0003	COc1ccccc1S(=O)(=O)N(CC(=O)N1CCCC1c1ccc(F)cc1)c1ccc(Cl)cc1 (stereo not drawn) [Example 52, N-(4-Chloro-phenyl)-N-{2-[2-(4-fluoro-phenyl)-pyrrolidin-1-yl]-2-oxo-ethyl}-2-methoxy-benzenesulfonamide]	

The next lines start with the compound.

Compound	Kb [1] [µM]	reduction of total REM sleep (rat) [%]
COc1ccc(N(CC(=O)N2CCCC2c2ccc(F)cc2)S(=O)(=O)c2ccc(OC)cc2)cc1 (stereo not drawn) [Example 41, N-{2-[2-(4-Fluoro-phenyl)-pyrrolidin-1-yl]-2-oxo-ethyl}-4-methoxy-N-(4-methoxy-phenyl)-benzenesulfonamide]	0.0026	
COc1ccc(S(=O)(=O)N(CC(=O)N2CCCC2c2ccccc2)c2ccccc2OC)cc1 (stereo not drawn) [Example 43, 4-Methoxy-N-(2-methoxy-phenyl)-N-[2-oxo-2-(2-phenyl-pyrrolidin-1-yl)-ethyl]-benzenesulfonamide]	0.0032	
COc1ccc(S(=O)(=O)N(CC(=O)N2CCCC2c2ccc(F)cc2)c2ccc(F)cc2)cc1 (stereo not drawn) [Example 45, N-(4-Fluoro-phenyl)-N-{2-[2-(4-fluoro-phenyl)-pyrrolidin-1-yl]-2-oxo-ethyl}-4-methoxy-benzenesulfonamide]	0.0079	
OX-A: orexin-A/hypocretin1, 33 amino acid hypothalamic neuropeptide derived from prepro-orexin (QPLPDCCRQKTCSCRLYELLHGAGNHAAGILTL; ends and bridges not checked; cysteine pairing not given here; UniProt O43612 34-66, looked up)		84

From patent publication US7932269B2, “Sulfonamides as orexin antagonists” (Hoffmann-La Roche Inc., priority 2008, dated 2011)
